One block for each compound: values may come before it.
Assays:
Type in all cases: binding
[1] = target: T1, C5AR1 (Homo sapiens, UniProt P21730); test: NanoBRET screen HiBiT-C5AR1 in HEK293
T1 construct: purchased Promega (in-house HiBiT-GPCR construct library, NanoBRET)
T1 sequence (P21730 1-350): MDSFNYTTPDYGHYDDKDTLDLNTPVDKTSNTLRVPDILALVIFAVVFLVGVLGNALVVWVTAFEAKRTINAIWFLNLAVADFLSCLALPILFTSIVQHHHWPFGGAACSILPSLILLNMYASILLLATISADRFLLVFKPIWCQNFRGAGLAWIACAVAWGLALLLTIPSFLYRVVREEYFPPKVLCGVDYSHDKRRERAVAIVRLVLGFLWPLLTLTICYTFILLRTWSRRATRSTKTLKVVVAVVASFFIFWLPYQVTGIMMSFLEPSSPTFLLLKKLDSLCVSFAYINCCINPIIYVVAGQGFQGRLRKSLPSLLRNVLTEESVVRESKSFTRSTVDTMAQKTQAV
Procedure: (§1) Each tracer candidate was screened across the entire library of HiBiT-GPCR constructs using NanoBRET as the detection modality. As depicted in Figure 4A, the specificity of interactions was evaluated through decrease in BRET due to competitive displacement of a bound tracer by excess parental compound. Each tracer was analyzed for binding to each HiBiT-GPCR fusion in the absence and in the presence of competing parental compound. Briefly, HEK293 cells were transfected with HiBiT-GPCR constructs diluted into promoterless DNA to reduce expression and maximize translocation to the cell surface. Each tracer candidate was then screened at concentrations of 1 μM and 0.1 μM across cells expressing these fusions. Cells were treated for 1.5 h with tracer either alone or in the presence of 20 μM competing parental compound (i.e., control). BRET was measured upon addition of purified LgBiT and subsequent complementation with HiBiT genetically fused to a GPCR. The specificity of interactions was assessed through a decrease in BRET signal due to competitive displacement of the bound tracer. To further gauge the robustness of these interactions, the fold response over the control (i.e., BRETtracer/BRETcontrol) was calculated. We chose a 1.5-fold response, which translates to ≥7-fold signal over noise as the minimal threshold required to score an interaction as positive. […]. Below we highlight the screening results obtained for our exemplary fluorescent tracers based on Clozapine, Amitriptyline and AZD1283.
(§2) HiBiT-GPCR DNA constructs were diluted in 10 mM Tris pH 8 to a final concentration of 0.01 μg/μL, arrayed in 96-well plates and stored at −20 °C. For transfection, HEK293 cells were suspended in Opti-MEM (without phenol red) supplemented with 2% fetal bovine serum (Seradigm) and 100 units/mL penicillin–streptomycin (Gibco) at a final concentration of 220,000 cells/mL and dispensed into white 96-well plates at 90 μL/well. Subsequent transfections and screens were carried using an Agilent Bravo Automated Liquid Handling Platform. First, the 96-well HiBiT DNA arrays were diluted 25-fold in Opti-MEM (without serum or phenol red) to a final concentration of 0.0004 μg/μL and 20 μL of the diluted DNAs were transferred into new 96-well plates. Next, promoterless carrier DNA (1 μg/μL) was diluted 25-fold (0.04 μg/μL) and then dispensed into the diluted arrays at 20 μL/well. Following brief mixing, Viafect transfection reagent (Promega) diluted 16-fold into Opti-MEM was dispensed into the plates at 40 μL/well. After mixing by pipetting, plates were incubated for 10 min on the pipetting station deck. The DNA-transfection reagent complexes were then added to plates containing cells. To facilitate the screen, 10 μL of DNA-transfection reagent complexes were added in duplicates to the top 4 and bottom 4 rows, resulting in two identical 48-well arrays per plate. Plates with transfected cells were incubated for 18–20 h at 37 °C/5% CO2. A screen of each tracer across the entire library using two different concentrations requires duplicate plates of transfected cells. Depending on the number of tracers being screened, transfections can be scaled up using the same ratios. The next day, for each tracer, four 20× screening solutions in tracer dilution buffer (Promega) were prepared: two duplicates at final concentration of 20 μM and two duplicates at a final concentration of 2 μM. A competing unmodified compound was added to one of each duplicate at a final concentration of 400 μM. The four resulting solutions were diluted 4-fold in Opti-MEM without serum or phenol red to generate 5× solutions (5 µM and 0.5 µM tracer +/− 100 μM competing compound). To screen the library, a BioTek MultiFlo FX liquid dispenser was used to dispense 22.5 µL of tracer solution to the top 4 rows and 22.5 µL tracer + competing compound solution to the 4 bottom rows. Plates were briefly mixed on an orbital shaker and incubated for 1.5 h at room temperature. […]

[2] = target: T2, PDGFRB (Homo sapiens, UniProt P09619); test: NanoBRET screen HiBiT-PDGFRB in HEK293
T2 construct: purchased Promega (in-house HiBiT-GPCR construct library, NanoBRET)
Procedure: as §1, §2

[3] = target: T3, BDKRB2 (Homo sapiens, UniProt P30411); test: NanoBRET screen HiBiT-BDKRB2 in HEK293
T3 construct: purchased Promega (in-house HiBiT-GPCR construct library, NanoBRET)
T3 sequence (P30411 1-391): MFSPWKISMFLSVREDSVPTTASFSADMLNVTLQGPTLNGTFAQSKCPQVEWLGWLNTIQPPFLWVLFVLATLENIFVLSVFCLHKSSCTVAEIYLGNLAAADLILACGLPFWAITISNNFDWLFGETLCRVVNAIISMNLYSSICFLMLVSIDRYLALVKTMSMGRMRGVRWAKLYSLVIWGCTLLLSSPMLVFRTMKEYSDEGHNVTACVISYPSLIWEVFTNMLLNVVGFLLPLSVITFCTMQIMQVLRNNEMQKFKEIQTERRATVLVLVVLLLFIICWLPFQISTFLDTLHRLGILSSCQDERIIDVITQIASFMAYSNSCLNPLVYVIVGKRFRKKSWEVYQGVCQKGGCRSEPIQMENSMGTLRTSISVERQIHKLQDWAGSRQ
Procedure: as §1, §2

T2 sequence (P09619 33-1106): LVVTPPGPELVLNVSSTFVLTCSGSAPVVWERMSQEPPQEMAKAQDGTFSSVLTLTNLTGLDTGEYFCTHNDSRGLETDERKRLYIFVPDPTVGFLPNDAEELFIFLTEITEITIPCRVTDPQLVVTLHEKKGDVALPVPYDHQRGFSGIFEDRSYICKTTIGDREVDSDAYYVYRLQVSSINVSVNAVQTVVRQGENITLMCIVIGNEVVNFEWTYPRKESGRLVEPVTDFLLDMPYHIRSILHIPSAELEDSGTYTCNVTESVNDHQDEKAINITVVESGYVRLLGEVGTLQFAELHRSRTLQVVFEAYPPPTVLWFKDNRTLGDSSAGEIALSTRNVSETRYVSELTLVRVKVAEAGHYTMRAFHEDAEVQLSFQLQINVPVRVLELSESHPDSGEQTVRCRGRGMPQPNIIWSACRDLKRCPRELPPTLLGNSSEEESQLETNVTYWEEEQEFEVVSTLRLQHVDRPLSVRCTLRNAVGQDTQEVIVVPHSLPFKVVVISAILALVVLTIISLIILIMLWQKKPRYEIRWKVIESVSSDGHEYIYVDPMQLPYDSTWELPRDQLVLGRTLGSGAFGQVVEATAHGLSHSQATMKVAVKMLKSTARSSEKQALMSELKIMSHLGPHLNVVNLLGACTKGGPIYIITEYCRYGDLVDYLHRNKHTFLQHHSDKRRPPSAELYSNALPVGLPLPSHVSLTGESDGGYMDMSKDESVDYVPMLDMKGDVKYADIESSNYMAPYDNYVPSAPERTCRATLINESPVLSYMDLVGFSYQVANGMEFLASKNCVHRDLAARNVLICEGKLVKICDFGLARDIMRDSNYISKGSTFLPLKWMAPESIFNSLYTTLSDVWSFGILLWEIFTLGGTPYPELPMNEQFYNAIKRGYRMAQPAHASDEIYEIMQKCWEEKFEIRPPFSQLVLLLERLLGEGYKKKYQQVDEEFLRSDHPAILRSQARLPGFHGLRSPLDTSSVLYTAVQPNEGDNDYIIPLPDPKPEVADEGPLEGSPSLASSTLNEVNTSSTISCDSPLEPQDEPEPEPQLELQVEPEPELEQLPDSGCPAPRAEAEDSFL

Compound: O=C(CCc1ccc2n1[B-](F)(F)[N+]1=C(c3ccc[nH]3)C=CC1=C2)NCc1ccc(C(=O)NCCOCCC(=O)N[C@@H]2CC[C@@]3(O)[C@H]4Cc5ccc(O)c6c5[C@@]3(CCN4CC3CC3)[C@H]2O6)cc1 [Naltrexone-3-NB590]
NanoBRET Fold Response ([1]; C5AR1, tracer 0.1μM): 0.94 | NanoBRET Fold Response ([1]; C5AR1, tracer 1μM): 0.93 | NanoBRET Fold Response ([2]; PDGFRB, tracer 0.1μM): 0.24 | NanoBRET Fold Response ([2]; PDGFRB, tracer 1μM): 0.95 | NanoBRET Fold Response ([3]; BDKRB2, tracer 0.1μM): 1.07 | NanoBRET Fold Response ([3]; BDKRB2, tracer 1μM): 0.94

Compound: CCCn1c(=O)c2[nH]c(-c3ccc(OCC(=O)NCCNC(=O)CCOCCNC(=O)c4ccc(CNC(=O)CCc5ccc6n5[B-](F)(F)[N+]5=C(c7ccc[nH]7)C=CC5=C6)cc4)cc3)nc2n(CCC)c1=O [XAC-3-NB590]
NanoBRET Fold Response ([1]; C5AR1, tracer 0.1μM): 0.95 | NanoBRET Fold Response ([1]; C5AR1, tracer 1μM): 1.04 | NanoBRET Fold Response ([2]; PDGFRB, tracer 0.1μM): 0.76 | NanoBRET Fold Response ([2]; PDGFRB, tracer 1μM): 0.79 | NanoBRET Fold Response ([3]; BDKRB2, tracer 0.1μM): 1.00 | NanoBRET Fold Response ([3]; BDKRB2, tracer 1μM): 1.14

Compound: CC(C)N(CC[C@H](c1ccccc1)c1cc(CCNC(=O)c2ccc(CNC(=O)CCc3ccc4n3[B-](F)(F)[N+]3=C(c5ccc[nH]5)C=CC3=C4)cc2)ccc1O)C(C)C [Tolterodine-BZ-NB590]
NanoBRET Fold Response ([1]; C5AR1, tracer 0.1μM): 1.01 | NanoBRET Fold Response ([1]; C5AR1, tracer 1μM): 1.11 | NanoBRET Fold Response ([2]; PDGFRB, tracer 0.1μM): 1.14 | NanoBRET Fold Response ([2]; PDGFRB, tracer 1μM): 1.21 | NanoBRET Fold Response ([3]; BDKRB2, tracer 0.1μM): 1.04 | NanoBRET Fold Response ([3]; BDKRB2, tracer 1μM): 1.08

NanoBRET Fold Response ([1]; 0.1μM tracer): 0.99 | NanoBRET Fold Response ([1]; 1μM tracer): 0.98 | NanoBRET Fold Response ([2]; 0.1μM tracer): 0.80 | NanoBRET Fold Response ([2]; 1μM tracer): 1.04 | NanoBRET Fold Response ([3]; 0.1μM tracer): 0.96 | NanoBRET Fold Response ([3]; 1μM tracer): 0.93
Compound: COc1ccc2[nH]c(-c3ccc(CNC(=O)CCOCCOCCOCCOCCNC(=O)CCc4ccc5n4[B-](F)(F)[N+]4=C(c6ccc[nH]6)C=CC4=C5)cc3)c(CCNC(C)=O)c2n1 [AzomelatoninICO9-2-NB590]

Compound: CN1CCN(C2=Nc3cc(Cl)ccc3N(CC(=O)NCCOCCOCCOCCOCCNC(=O)CCc3ccc4n3[B-](F)(F)[N+]3=C(c5ccc[nH]5)C=CC3=C4)c3ccccc32)CC1 [Clozapine-c-2-NB590]
NanoBRET Fold Response ([1]; C5AR1, 0.1μM tracer): 1.00 | NanoBRET Fold Response ([1]; C5AR1, 1μM tracer): 1.05 | NanoBRET Fold Response ([2]; PDGFRB, 0.1μM tracer): 1.00 | NanoBRET Fold Response ([2]; PDGFRB, 1μM tracer): 0.87 | NanoBRET Fold Response ([3]; BDKRB2, 0.1μM tracer): 1.00 | NanoBRET Fold Response ([3]; BDKRB2, 1μM tracer): 1.03

Compound: COc1ccccc1N1CCN(CCCCN2C(=O)c3ccc(CNC(=O)CCOCCNC(=O)c4ccc(CNC(=O)CCc5ccc6n5[B-](F)(F)[N+]5=C(c7ccc[nH]7)C=CC5=C6)cc4)cc3C2=O)CC1 [NAN-190-3-NB590]
NanoBRET Fold Response ([1]; C5AR1, tracer 0.1μM): 1.02 | NanoBRET Fold Response ([1]; C5AR1, tracer 1μM): 1.10 | NanoBRET Fold Response ([2]; PDGFRB, tracer 0.1μM): 0.93 | NanoBRET Fold Response ([2]; PDGFRB, tracer 1μM): 1.07 | NanoBRET Fold Response ([3]; BDKRB2, tracer 0.1μM): 0.97 | NanoBRET Fold Response ([3]; BDKRB2, tracer 1μM): 0.88

Compound: Cc1nc2n(c(=O)c1CCN1CCC(c3noc4cc(F)ccc34)CC1)CCCC2OC(=O)NCCOCCOCCOCCOCCNC(=O)CCc1ccc2n1[B-](F)(F)[N+]1=C(c3ccc[nH]3)C=CC1=C2 (centres unmarked) [Risperidone-2-NB590]
NanoBRET Fold Response ([1]; C5AR1, tracer 0.1μM): 0.95 | NanoBRET Fold Response ([1]; C5AR1, tracer 1μM): 0.99 | NanoBRET Fold Response ([2]; PDGFRB, tracer 0.1μM): 1.09 | NanoBRET Fold Response ([2]; PDGFRB, tracer 1μM): 0.90 | NanoBRET Fold Response ([3]; BDKRB2, tracer 0.1μM): 0.92 | NanoBRET Fold Response ([3]; BDKRB2, tracer 1μM): 0.96

Compound: O=C(CCOCCOCCOCCOCCNC(=O)CCc1ccc2n1[B-](F)(F)[N+]1=C(c3ccc[nH]3)C=CC1=C2)NCCCN1CCN(C2=Nc3ccccc3Oc3ccc(Cl)cc32)CC1 [Loxapine-a-2-NB590]
NanoBRET Fold Response ([1]; C5AR1, tracer 0.1μM): 1.01 | NanoBRET Fold Response ([1]; C5AR1, tracer 1μM): 0.98 | NanoBRET Fold Response ([2]; PDGFRB, tracer 0.1μM): 1.12 | NanoBRET Fold Response ([2]; PDGFRB, tracer 1μM): 1.00 | NanoBRET Fold Response ([3]; BDKRB2, tracer 0.1μM): 1.08 | NanoBRET Fold Response ([3]; BDKRB2, tracer 1μM): 1.16

Compound: COc1ccccc1N1CCN(CCCCN2C(=O)c3ccc(CNC(=O)CCOCCOCCOCCOCCNC(=O)CCc4ccc5n4[B-](F)(F)[N+]4=C(c6ccc[nH]6)C=CC4=C5)cc3C2=O)CC1 [NAN-190-2-NB590]
NanoBRET Fold Response ([1]; C5AR1, tracer 0.1μM): 1.03 | NanoBRET Fold Response ([1]; C5AR1, tracer 1μM): 1.04 | NanoBRET Fold Response ([2]; PDGFRB, tracer 0.1μM): 0.99 | NanoBRET Fold Response ([2]; PDGFRB, tracer 1μM): 1.00 | NanoBRET Fold Response ([3]; BDKRB2, tracer 0.1μM): 1.08 | NanoBRET Fold Response ([3]; BDKRB2, tracer 1μM): 0.98

Compound: CN(CCC=C1c2ccccc2CCc2ccccc21)C(=O)CCOCCOCCOCCOCCNC(=O)CCc1ccc2n1[B-](F)(F)[N+]1=C(c3ccc[nH]3)C=CC1=C2 [Amitriptyline-e-2-NB590]
NanoBRET Fold Response ([1]; tracer at 1μM): 1.02 | NanoBRET Fold Response ([2]; tracer at 1μM): 1.04
